Read-outs that look alike come from different tables or passages of the source.
Tests used:
DLD1 WT cells = test: 7-day cell viability assay (CellTiter-Glo), DLD1 parental (WT); type: cell-based, human; settings: Homo sapiens, DLD-1, 168 h, n=2
DLD1 BRCA2 (−/−) cells = test: 7-day cell viability assay (CellTiter-Glo), DLD1 BRCA2 (−/−); type: cell-based, human; settings: Homo sapiens, DLD-1, 168 h, n=2, read-out: Viability IC50 (uM) DLD1 BRCA2 null
In short: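 7-day growth assay in DLD1 cells with or without BRCA2; seeding densities chosen to keep log-linear growth. Compound: 10 uM top, 3-fold, 9 points. Endpoint: CTG ATP luminescence at RT.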

[1] = target: biotinylated Avi-POLθ[2-894] (Homo sapiens (Human), UniProt O75417); test: POLθ ATPase assay (ADP-Glo); settings: n=2, read-out: Biochemical ATPase ADPGlo IC50
biotinylated Avi-POLθ[2-894], sequence (O75417 2-894): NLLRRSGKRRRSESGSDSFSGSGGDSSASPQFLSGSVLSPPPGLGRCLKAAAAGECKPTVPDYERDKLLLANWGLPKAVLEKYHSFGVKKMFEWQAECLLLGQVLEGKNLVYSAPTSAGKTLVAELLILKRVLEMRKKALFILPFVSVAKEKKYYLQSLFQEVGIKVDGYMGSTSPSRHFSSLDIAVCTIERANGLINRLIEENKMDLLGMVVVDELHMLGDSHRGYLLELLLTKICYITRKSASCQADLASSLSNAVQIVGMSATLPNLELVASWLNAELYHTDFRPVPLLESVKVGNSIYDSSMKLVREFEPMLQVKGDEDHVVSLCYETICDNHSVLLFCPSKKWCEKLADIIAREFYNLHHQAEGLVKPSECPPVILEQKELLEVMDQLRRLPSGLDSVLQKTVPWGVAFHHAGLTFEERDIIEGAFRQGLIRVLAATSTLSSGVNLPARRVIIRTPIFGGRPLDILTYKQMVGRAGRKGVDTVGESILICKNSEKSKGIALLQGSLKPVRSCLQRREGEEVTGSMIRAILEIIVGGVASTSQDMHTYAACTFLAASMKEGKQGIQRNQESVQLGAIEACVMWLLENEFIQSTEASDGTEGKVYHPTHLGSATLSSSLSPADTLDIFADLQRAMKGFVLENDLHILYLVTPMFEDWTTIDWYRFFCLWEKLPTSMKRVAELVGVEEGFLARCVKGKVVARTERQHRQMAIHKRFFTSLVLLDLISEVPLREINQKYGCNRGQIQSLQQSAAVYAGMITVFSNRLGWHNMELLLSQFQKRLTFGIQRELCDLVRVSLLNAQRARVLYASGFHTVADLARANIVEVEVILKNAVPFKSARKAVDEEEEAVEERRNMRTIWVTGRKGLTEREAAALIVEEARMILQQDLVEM

| SMILES | IC50 (DLD1 WT cells; 7-day viability) [µM] | IC50 (DLD1 BRCA2 (−/−) cells; 7-day viability) [µM] | IC50 [1] [nM] | IC50 (DLD1 WT cells; 7-day CellTiter-Glo) [µM] | IC50 (DLD1 BRCA2 (−/−) cells; 7-day CellTiter-Glo) [µM] | IC50 ([1]; POLθ ATPase, ADP-Glo) [nM] |
| --- | --- | --- | --- | --- | --- | --- |
| COc1ccc(C#N)cc1-c1cc(C)ncc1C(=O)Nc1nc2c(s1)CN(S(=O)(=O)c1ccccn1)C2 [Example 308] | ≥ 10 | ≥ 2 | 15 to 50 | – | – | – |
| COc1ccccc1-c1cc(C)ncc1C(=O)Nc1nc2c(s1)CN(C(=O)OC(C)(C)C)C2 [Example 314] | 2 to 5 | 0.5 to 2 | 50 to 150 | – | – | – |
| CCn1ncc(Cl)c1C(=O)N1Cc2nc(NC(=O)c3cnc(C)cc3-c3cc(Cl)ncc3OC)sc2C1 [Example 393, 2′-chloro-N-(5-(4-chloro-1-ethyl-1H-pyrazole-5-carbonyl)-5,6-dihydro-4H-pyrrolo[3,4-d]thiazol-2-yl)-5′-methoxy-6-methyl-[4,4′-bipyridine]-3-carboxamide] | – | – | – | ≥ 10 | 0.001 to 0.1 | 1 to 15 |
| COc1cnc(Cl)cc1-c1cc(C)ncc1C(=O)Nc1nc2c(s1)CN(C(=O)c1ccc(OC(F)(F)F)cn1)C2 [Example 394, 2′-chloro-5′-methoxy-6-methyl-N-(5-(5-(trifluoromethoxy)picolinoyl)-5,6-dihydro-4H-pyrrolo[3,4-d]thiazol-2-yl)-[4,4′-bipyridine]-3-carboxamide] | ≥ 10 | 0.001 to 0.1 | 1 to 15 | – | – | – |
| COc1cnc(Cl)cc1-c1cc(C)ncc1C(=O)Nc1nc2c(s1)CN(C(=O)c1ccc(OC)c(Cl)n1)C2 [Example 395, 2′-chloro-N-(5-(6-chloro-5-methoxypicolinoyl)-5,6-dihydro-4H-pyrrolo[3,4-d]thiazol-2-yl)-5′-methoxy-6-methyl-[4,4′-bipyridine]-3-carboxamide] | – | – | – | ≥ 10 | 0.001 to 0.1 | 1 to 15 |
| COc1cnc(Cl)cc1-c1cc(C)ncc1C(=O)Nc1nc2c(s1)CN(C(=O)c1cc(C(F)F)ccc1F)C2 [Example 398, 2′-chloro-N-(5-(5-(difluoromethyl)-2-fluorobenzoyl)-5,6-dihydro-4H-pyrrolo[3,4-d]thiazol-2-yl)-5′-methoxy-6-methyl-[4,4′-bipyridine]-3-carboxamide] | – | – | – | ≥ 10 | 0.001 to 0.1 | 1 to 15 |
| COc1cnc(Cl)cc1-c1cc(C)ncc1C(=O)Nc1nc2c(s1)CN(C(=O)c1nccc(Cl)c1OC)C2 [Example 399, 2′-chloro-N-(5-(4-chloro-3-methoxypicolinoyl)-5,6-dihydro-4H-pyrrolo[3,4-d]thiazol-2-yl)-5′-methoxy-6-methyl-[4,4′-bipyridine]-3-carboxamide] | ≥ 10 | 0.001 to 0.1 | 1 to 15 | – | – | – |
| COc1cnc(Cl)cc1-c1cc(C)ncc1C(=O)Nc1nc2c(s1)CN(C(=O)c1ccc(OC)c3ccnn13)C2 [Example 402] | ≥ 10 | 0.001 to 0.1 | 1 to 15 | – | – | – |
| COc1cnc(Cl)cc1-c1cc(C)ncc1C(=O)Nc1nc2c(s1)CN(C(=O)C1CCC(C(F)F)CC1)C2 (stereo not drawn) [Example 406, (Cis and trans) 2′-chloro-N-(5-(4-(difluoromethyl)cyclohexane-1-carbonyl)-5,6-dihydro-4H-pyrrolo[3,4-d]thiazol-2-yl)-5′-methoxy-6-methyl-[4,4′-bipyridine]-3-carboxamide] | – | – | – | ≥ 10 | 0.001 to 0.1 | 1 to 15 |
| COc1cnc(Cl)cc1-c1cc(C)ncc1C(=O)Nc1nc2c(s1)CN(C(=O)c1ccc(Cl)c(OC)n1)C2 [Example 421] | – | – | – | 2 to 5 | 0.001 to 0.1 | 1 to 15 |
| COc1cnc(Cl)cc1-c1cc(C)ncc1C(=O)Nc1nc2c(s1)CN(C(=O)c1cccn3nccc13)C2 [Example 424] | – | – | – | ≥ 10 | 0.001 to 0.1 | 1 to 15 |
| COc1cnc(Cl)cc1-c1cc(C)ncc1C(=O)Nc1nc2c(s1)CN(C(=O)c1c(Cl)ccnc1OC)C2 [Example 460] | – | – | – | 5 to 10 | 0.001 to 0.1 | 1 to 15 |
| COc1ccc(C#N)cc1-c1cc(C)ncc1C(=O)Nc1nc2c(s1)CN(C(=O)c1cccc(C(F)F)c1Cl)C2 [Example 487] | – | – | – | ≥ 10 | 0.001 to 0.1 | 1 to 15 |

— patent US20250230171A1 (MOMA Therapeutics, Inc., priority 2023, published 2025)
